Source: PMC7031696 (Cell chemical biology, 2019)

System: 3D7-MR4 trophozoite parasite-infected RBCs
Assay: Metabolomic profiling (hydrophilic metabolite changes, UHPLC-MS)
Type: cell-based, Plasmodium falciparum

Ferroquine [reference compound]
changes within the set of metabolites detected (low fold change group) (10 × IC50^72h, 2.5 hr, trophozoites): did not induce major changes | Log2(fold changes) 1_3-Bisphosphoglyceric acid (metabolite 1_3-Bisphosphoglyceric acid, log2 fold change): 0.0000 | Log2(fold changes) 2-Hydroxy-2-methylbutanedioic acid (metabolite 2-Hydroxy-2-methylbutanedioic acid, log2 fold change): -0.0247 | Log2(fold changes) 2-Isopropylmalic acid (metabolite 2-Isopropylmalic acid, log2 fold change): 0.0000 | Log2(fold changes) 2-dehydro-D-gluconate (metabolite 2-dehydro-D-gluconate, log2 fold change): -0.3147 | Log2(fold changes) 2-oxo-4-methylthiobutanoate (metabolite 2-oxo-4-methylthiobutanoate, log2 fold change): 0.0000 | Log2(fold changes) 2_3-Diphosphoglyceric acid (metabolite 2_3-Diphosphoglyceric acid, log2 fold change): -0.0833 | Log2(fold changes) 3-phosphoglycerate (metabolite 3-phosphoglycerate, log2 fold change): 0.2090 | Log2(fold changes) 3-phosphoserine (metabolite 3-phosphoserine, log2 fold change): 0.0000 | Log2(fold changes) 4-Pyridoxic acid (metabolite 4-Pyridoxic acid, log2 fold change): 0.0751 | Log2(fold changes) 4-aminobutyrate (metabolite 4-aminobutyrate, log2 fold change): 0.0759 | Log2(fold changes) 4-phosphopantetheine (metabolite 4-phosphopantetheine, log2 fold change): 0.0000 | Log2(fold changes) 4-phosphopantothenate (metabolite 4-phosphopantothenate, log2 fold change): 0.0213 | Log2(fold changes) 5-aminopentanoic acid (metabolite 5-aminopentanoic acid, log2 fold change): 0.0000 | Log2(fold changes) 5-methyl-THF (metabolite 5-methyl-THF, log2 fold change): 0.0000 | Log2(fold changes) 5-phosphoribosyl-1-pyrophosphate (metabolite 5-phosphoribosyl-1-pyrophosphate, log2 fold change): 0.0000 | Log2(fold changes) 6-phospho-D-gluconate (metabolite 6-phospho-D-gluconate, log2 fold change): 0.0000 | Log2(fold changes) ADP-D-glucose (metabolite ADP-D-glucose, log2 fold change): 0.0625 | Log2(fold changes) Acetyl-glycine (metabolite Acetyl-glycine, log2 fold change): 0.0000 | Log2(fold changes) Acetyllysine (metabolite Acetyllysine, log2 fold change): 0.2432 | Log2(fold changes) Aminoadipic acid (metabolite Aminoadipic acid, log2 fold change): 0.0000 | Log2(fold changes) CDP (metabolite CDP, log2 fold change): -0.2924 | Log2(fold changes) CDP-choline (metabolite CDP-choline, log2 fold change): 0.0000 | Log2(fold changes) CDP-ethanolamine (metabolite CDP-ethanolamine, log2 fold change): 0.1904 | Log2(fold change) of CMP (metabolite CMP): -0.0276 | Log2(fold change) of CTP (metabolite CTP): 0.0362 | Log2(fold changes) Citraconic acid (metabolite Citraconic acid, log2 fold change): 0.0302 | Log2(fold change) of D-glucarate (metabolite D-glucarate): 0.4691 | Log2(fold change) of D-gluconate (metabolite D-gluconate): 0.0000 | Log2(fold change) of D-glucosamine-1/6-phosphate (metabolite D-glucosamine-1/6-phosphate): 0.0000 | Log2(fold change) of D-sedoheptulose-1/7-phosphate (metabolite D-sedoheptulose-1/7-phosphate): -0.0036 | Log2(fold change) of DL-Pipecolic Acid (metabolite DL-Pipecolic Acid): -0.1035 | Log2(fold change) of DLH (metabolite DLH): 0.0094 | Log2(fold change) of DLS (metabolite DLS): 0.0686 | Log2(fold change) of Decanoyl-CoA (metabolite Decanoyl-CoA): 0.0000 | Log2(fold change) of EV (metabolite EV): 0.0000 | Log2(fold change) of FAD (metabolite FAD): 0.0236 | Log2(fold change) of FMN (metabolite FMN): 0.1126 | Log2(fold change) of G3P/DHAP (metabolite G3P/DHAP): 0.0000 | Log2(fold change) of GDP (metabolite GDP): -0.2435 | Log2(fold change) GMP (metabolite GMP): -0.0369 | Log2(fold change) GTP (metabolite GTP): 0.0612 | Log2(fold change) HVDD (metabolite HVDD): 0.0000 | Log2(fold change) Hexose (metabolite Hexose): 0.9215 | Log2(fold change) Hydroxyisocaproic acid (metabolite Hydroxyisocaproic acid): 0.0000 | Log2(fold change) IDP (metabolite IDP): 0.0000 | Log2(fold change) IMP (metabolite IMP): -0.0158 | Log2(fold change) Inositol (metabolite Inositol): 0.0000 | Log2(fold change) Isopentyl-PP (metabolite Isopentyl-PP): 0.0768 | Log2(fold change) L-arginino-succinate (metabolite L-arginino-succinate): 0.0000 | Log2(fold change) LD (metabolite LD): 0.1184 | Log2(fold change) Myristoyl/tetradecanoyl-CoA (metabolite Myristoyl/tetradecanoyl-CoA): 0.0000 | Log2(fold change) N-Acetyl-L-alanine (metabolite N-Acetyl-L-alanine): -0.1094 | Log2(fold change) N-acetyl-L-ornithine (metabolite N-acetyl-L-ornithine): 0.3046 | Log2(fold change) N-acetyl-glucosamine-1/6-phosphate (metabolite N-acetyl-glucosamine-1/6-phosphate): -0.0561 | Log2(fold change) N-acetyl-glutamate (metabolite N-acetyl-glutamate): 0.1101 | Log2(fold change) N-acetyl-glutamine (metabolite N-acetyl-glutamine): 0.0004 | Log2(fold change) N-carbamoyl-L-aspartate (metabolite N-carbamoyl-L-aspartate): 0.0860 | Log2(fold change) NAD+ (metabolite NAD+): 0.0993 | Log2(fold change) NADH (metabolite NADH): 0.0000 | Log2(fold change) NADP+ (metabolite NADP+): -0.0805 | Log2(fold change) NADPH (metabolite NADPH): 0.9289 | Log2(fold change) O-acetyl-L-serine (metabolite O-acetyl-L-serine): 0.0000 | Log2(fold change) Octoluse 8/1P (metabolite Octoluse 8/1P): 0.1026 | Log2(fold change) Octoluse Bisphosphate (metabolite Octoluse Bisphosphate): 0.0231 | Log2(fold change) PD (metabolite PD): 0.1011 | Log2(fold change) PE (metabolite PE): 0.0655 | Log2(fold change) PEE (metabolite PEE): 0.0431 | Log2(fold change) PEEK (metabolite PEEK): 0.3448 | Log2(fold change) PVNF (metabolite PVNF): 0.0000 | Log2(fold change) Pyroglutamic acid (metabolite Pyroglutamic acid): 0.1702 | Log2(fold change) Pyrophosphate (metabolite Pyrophosphate): 0.0000 | Log2(fold change) Ribose-5-phosphate (metabolite Ribose-5-phosphate): 0.0000 | Log2(fold change) S-adenosyl-L-homocysteine (metabolite S-adenosyl-L-homocysteine): 0.0736 | Log2(fold change) S-adenosyl-L-methioninamine (metabolite S-adenosyl-L-methioninamine): 0.0000 | Log2(fold change) S-adenosyl-L-methionine (metabolite S-adenosyl-L-methionine): 0.0000 | Log2(fold change) S-methyl-5'-thioadenosine (metabolite S-methyl-5'-thioadenosine): 0.0000 | Log2(fold change) SD (metabolite SD): 0.1281 | Log2(fold change) SDL (metabolite SDL): 0.2089 | Log2(fold change) SID (metabolite SID): 0.0000 | Log2(fold change) Sedoheptulose bisphosphate (metabolite Sedoheptulose bisphosphate): 0.0573 | Log2(fold change) Thiamine pyrophosphate (metabolite Thiamine pyrophosphate): 0.0000 | Log2(fold changes) UDP-D-glucose (metabolite UDP-D-glucose, log2 fold change): 0.0465 | Log2(fold changes) UDP-D-glucuronate (metabolite UDP-D-glucuronate, log2 fold change): 0.0272 | Log2(fold changes) UDP-N-acetyl-glucosamine (metabolite UDP-N-acetyl-glucosamine, log2 fold change): 0.0319 | Log2(fold changes) UDP (metabolite UDP, log2 fold change): -0.2525 | Log2(fold changes) UMP (metabolite UMP, log2 fold change): -0.0522 | Log2(fold changes) UTP (metabolite UTP, log2 fold change): 0.1015 | Log2(fold changes) VD (metabolite VD, log2 fold change): 0.1916 | Log2(fold changes) Xanthurenic acid (metabolite Xanthurenic acid, log2 fold change): 0.0000 | Log2(fold changes) a-ketoglutarate (metabolite a-ketoglutarate, log2 fold change): -0.2164 | Log2(fold changes) acetyl-CoA (metabolite acetyl-CoA, log2 fold change): 0.0673 | Log2(fold changes) acetyl-aspartate (metabolite acetyl-aspartate, log2 fold change): -0.0096 | Log2(fold changes) acetylphosphate (metabolite acetylphosphate, log2 fold change): 0.0000 | Log2(fold changes) aconitate (metabolite aconitate, log2 fold change): 0.0000 | Log2(fold changes) adenine (metabolite adenine, log2 fold change): 0.0000 | Log2(fold changes) adenosine 5'-phosphosulfate (metabolite adenosine 5'-phosphosulfate, log2 fold change): -0.1961
